Reference: article doi:10.1101/2024.10.14.618151v1 (bioRxiv, 2024)
Non-standard residues stand in square brackets, D forms with d. Residues, ends and D or L forms follow the SMILES beside them. No end group written: not given here. pGlu = O=C1CC[C@@H](C(=O)O)N1

Test system: PBL migration across TNF-α/IFN-γ-stimulated endothelial cells (HDBEC)
Settings: for IC50: 24 h

IC50 [nM]	Molecule	effect on lymphocyte migration in vitro
	SVTEQGA	full activity
0.024	CC(C)[C@@H](NC(=O)[C@H](N)[C@H](C)O)C(=O)N[C@H](CO)C(N)=O [tvs-NH2] (H-[dT]-[dV]-[dS]-NH2)	
0.0032	C[C@H](NC(=O)CNC(=O)[C@@H]1CCC(=O)N1)C(N)=O [[PyroGlu]-GA-NH2] ([pGlu]-Gly-Ala-NH2)	
0.045	SVTEQGAELSNEER [PEPITEM]	
